In PubChem BioAssay (NCI):
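All cell lines were grown in 96-well plates and treated with compound for 48 hours. The concentration for 50% growth inhibition is given as GI50. TGI: total growth inhibition.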

How the values were obtained:
Assay in all cases: growth of human tumour cells (NCI), 48 h
[1] = test system: 786-0 renal
[2] = test system: EKVX NSCLC
[3] = test system: K-562 leukemia
[4] = test system: KM12 colon
[5] = test system: MDA-MB-435
[6] = test system: MOLT-4 leukemia
[7] = test system: OVCAR-4 ovarian
[8] = test system: SF-539 CNS
[9] = test system: SK-MEL-2 melanoma
[10] = test system: SNB-19 CNS

Structure (SMILES) | GI50 [1] | TGI [1] | GI50 [2] | TGI [2] | GI50 [3] | TGI [3] | GI50 [4] | TGI [4] | GI50 [5] | TGI [5] | GI50 [6] | TGI [6] | GI50 [7] | TGI [7] | GI50 [8] | TGI [8] | GI50 [9] | TGI [9] | GI50 [10] | TGI [10]
C=C1C(=O)O[C@H]2[C@H]1CC/C(COC(=O)NCCCCCCCCNC(=O)OC/C1=C/CC[C@@]3(C)O[C@H]3[C@H]3OC(=O)C(=C)[C@@H]3CC1)=C\CC[C@@]1(C)O[C@@H]21 | 0.244 µM | 0.646 µM | 1.19 µM | 2.44 µM | 0.349 µM | 1.37 µM | 1.29 µM | 3.11 µM | 0.241 µM | 0.686 µM | 0.33 µM | 1.18 µM | 0.521 µM | 1.86 µM | 0.235 µM | 0.599 µM | 0.601 µM | 2.8 µM |  | 
CN(C)CCOC(=O)Nc1nc2ccc(Sc3ccccc3)cc2[nH]1 | 3.8 µM | 15 µM | 5.75 µM | 22.7 µM | 0.613 µM | 13.7 µM | 3.51 µM | 19.7 µM | 0.432 µM | 2.26 µM | 5.32 µM | 20.1 µM | 6.3 µM | > 100 µM | 2.27 µM | 5.85 µM | 5.55 µM | 22.2 µM | 4.87 µM | 19.5 µM
CN(C)c1ccc(N=C2C=CC(=O)c3ccccc32)cc1 | 15.2 µM | 32.5 µM |  |  | 2 µM | 4.75 µM | 2.69 µM | 10.2 µM | 1.85 µM | 3.58 µM | 2.45 µM | 6.21 µM | 2.02 µM | 10.4 µM | 3.11 µM | 11.4 µM | 3.5 µM | 11 µM | 3.42 µM | 13.9 µM
COc1cccc(Nc2nccc(-c3cnn4ncccc34)n2)c1 | 0.0871 µM | > 25 µM | 0.0709 µM |  | 0.115 µM | > 25 µM | 0.0629 µM | 0.367 µM | 0.0609 µM | 0.25 µM | 0.078 µM |  | 0.0903 µM | 17.8 µM | 0.0502 µM | 0.143 µM | 0.0572 µM | 0.138 µM | 0.0833 µM | > 25 µM
Nc1c(F)cc(-c2nc3cc(F)ccc3[se]2)cc1Br | 10.6 µM | 50.4 µM | 0.209 µM | > 100 µM | 49.2 µM | > 100 µM | 0.15 µM | > 100 µM | 14.6 µM | > 100 µM | > 46.5 µM | > 100 µM | 0.15 µM | > 100 µM | 11.4 µM | 32.4 µM | 75 µM | > 100 µM | 27.8 µM | > 100 µM
CCN(Cc1ccc(F)cc1)c1ccc(CO)c(OC)c1 | 21.4 µM | 65.1 µM |  |  | 20 µM | > 92 µM | 36.5 µM | > 100 µM | 25.7 µM | > 100 µM | 20.1 µM | 72.4 µM | 7.02 µM | 20.6 µM | 45.1 µM | > 100 µM | 11.9 µM | 27.7 µM | 43.7 µM | > 100 µM
CN1CCN(Cc2ccc(NC(=O)c3cncc(C#Cc4cnc(N)c5cnccc45)c3)cc2C(F)(F)F)CC1 | 0.314 µM | 7.73 µM | 0.485 µM | 4.4 µM | 0.005 µM | 0.732 µM | 0.0169 µM | 5.53 µM | 0.115 µM | 1.65 µM | 0.172 µM | 7.49 µM | 0.129 µM | 7.52 µM | 0.157 µM | 0.628 µM | 0.108 µM | 0.283 µM | 1.76 µM | 10.9 µM
O=[N+]([O-])c1ccc(Sc2ccncn2)c([N+](=O)[O-])c1 | 2.24 µM | 4.89 µM | 2.39 µM | 8.3 µM | 0.277 µM | 1.95 µM | 2.75 µM | 9 µM | 2.5 µM | 8.56 µM | 0.939 µM | 4.24 µM | 2.78 µM | 11.3 µM | 2.32 µM | 6.75 µM | 2.96 µM | 8.96 µM | 10.1 µM | 23.7 µM
C[CH2][Sn]([CH2]C)([O]C(=O)c1ccc(OC)c(OC)c1OC)[O]C(=O)c1ccc(OC)c(OC)c1OC | 58.6 µM | > 100 µM | > 100 µM | > 100 µM | 21.7 µM | > 74.6 µM | > 100 µM | > 100 µM | > 100 µM | > 100 µM | 34.1 µM | > 100 µM | > 82.6 µM | > 100 µM | 44.3 µM | > 71.8 µM | 28.7 µM | 81.7 µM | 53.5 µM | > 67.5 µM
COc1ccc2c(c1OC(C)=O)C1=CC(=O)CCC13CCNC3C2 (stereo unspecified) |  | > 100 µM |  | > 100 µM |  | > 100 µM |  | > 100 µM |  | > 100 µM |  | > 100 µM |  | > 100 µM |  |  |  | > 100 µM |  | > 100 µM
Cc1nccc2c3ccc(OCc4cn(-c5ccc(Cl)cc5)nn4)cc3n(CC(C)C)c12 | 2.09 µM | 8.33 µM | 2.14 µM | 32.6 µM | 0.992 µM | > 33.3 µM | 2.69 µM | 16.8 µM | 3.38 µM | > 33.3 µM | 1.14 µM | 6.54 µM | 2.24 µM | 15.1 µM | 2.82 µM | 10.9 µM | 5.59 µM | 22.5 µM | 4.5 µM | > 33.3 µM
Cn1c2ccccc2c2c(=O)n(CCCC(=O)OC(=NC3CCCCC3)NC3CCCCC3)c3c(-c4ccccc4)nnn3c21 | > 100 µM | > 100 µM | > 100 µM | > 100 µM | > 100 µM | > 100 µM | > 100 µM | > 100 µM | > 100 µM | > 100 µM | > 100 µM | > 100 µM | 38 µM | > 100 µM | 38.4 µM | > 100 µM | > 100 µM | > 100 µM | > 100 µM | > 100 µM
Cc1ccc(S(=O)(=O)Nc2ccc(-c3cc(-c4cccc(F)c4)c(C#N)c(N)n3)cc2)cc1 | 1.71 µM | 3.12 µM | 2.17 µM | 6.32 µM | 2.63 µM | > 100 µM | 3.1 µM | 10.2 µM | 2.02 µM | 4.46 µM | 3.2 µM | 30.2 µM | 1.77 µM | 3.67 µM | 1.56 µM | 3.02 µM | 1.96 µM | 4.22 µM | 3.15 µM | 11.6 µM
